One experiment addresses T1, Toll-like receptor 9 (Homo sapiens, UniProt Q9NR96).
T1 sequence (Q9NR96 whole entry): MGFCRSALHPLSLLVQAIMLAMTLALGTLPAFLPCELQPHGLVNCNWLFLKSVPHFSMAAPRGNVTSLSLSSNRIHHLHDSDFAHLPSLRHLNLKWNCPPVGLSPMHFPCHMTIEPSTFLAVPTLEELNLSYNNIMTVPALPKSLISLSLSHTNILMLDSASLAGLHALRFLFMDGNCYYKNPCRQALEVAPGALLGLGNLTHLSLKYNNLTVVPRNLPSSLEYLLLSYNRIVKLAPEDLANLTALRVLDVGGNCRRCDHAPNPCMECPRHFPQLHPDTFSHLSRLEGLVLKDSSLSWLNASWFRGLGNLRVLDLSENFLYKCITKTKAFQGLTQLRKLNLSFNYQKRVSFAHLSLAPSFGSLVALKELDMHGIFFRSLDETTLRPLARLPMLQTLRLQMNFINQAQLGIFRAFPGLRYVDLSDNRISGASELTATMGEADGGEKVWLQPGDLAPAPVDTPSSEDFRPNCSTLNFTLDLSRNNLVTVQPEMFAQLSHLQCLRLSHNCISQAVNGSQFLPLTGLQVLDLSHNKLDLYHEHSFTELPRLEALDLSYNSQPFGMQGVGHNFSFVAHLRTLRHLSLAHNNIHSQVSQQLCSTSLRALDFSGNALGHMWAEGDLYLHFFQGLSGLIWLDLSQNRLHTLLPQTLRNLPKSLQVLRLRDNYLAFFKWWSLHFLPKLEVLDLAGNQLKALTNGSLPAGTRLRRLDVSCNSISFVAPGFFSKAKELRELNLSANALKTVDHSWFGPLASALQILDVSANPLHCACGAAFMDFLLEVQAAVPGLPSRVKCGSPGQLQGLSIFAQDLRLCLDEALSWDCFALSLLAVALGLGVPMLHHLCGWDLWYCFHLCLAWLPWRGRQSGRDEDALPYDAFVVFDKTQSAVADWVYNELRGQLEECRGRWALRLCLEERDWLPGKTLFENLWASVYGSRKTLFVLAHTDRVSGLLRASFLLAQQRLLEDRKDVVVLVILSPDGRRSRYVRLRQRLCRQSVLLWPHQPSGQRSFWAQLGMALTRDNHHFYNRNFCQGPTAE
Put plainly: Antagonist activity at human TLR9 expressed in HEK-blue hTLR9 cells assessed as inhibition of CpGB-induced NFkappaB activation preincubated with compound for 1 hrs followed by CpGB addition and measured next day by SEAP-based spectrophotometry assay. The experiment is classed as cell-based.

The next experiment deals with T2, Toll-like receptor 7 (Homo sapiens, UniProt Q9NYK1).
T2 sequence (Q9NYK1 whole entry): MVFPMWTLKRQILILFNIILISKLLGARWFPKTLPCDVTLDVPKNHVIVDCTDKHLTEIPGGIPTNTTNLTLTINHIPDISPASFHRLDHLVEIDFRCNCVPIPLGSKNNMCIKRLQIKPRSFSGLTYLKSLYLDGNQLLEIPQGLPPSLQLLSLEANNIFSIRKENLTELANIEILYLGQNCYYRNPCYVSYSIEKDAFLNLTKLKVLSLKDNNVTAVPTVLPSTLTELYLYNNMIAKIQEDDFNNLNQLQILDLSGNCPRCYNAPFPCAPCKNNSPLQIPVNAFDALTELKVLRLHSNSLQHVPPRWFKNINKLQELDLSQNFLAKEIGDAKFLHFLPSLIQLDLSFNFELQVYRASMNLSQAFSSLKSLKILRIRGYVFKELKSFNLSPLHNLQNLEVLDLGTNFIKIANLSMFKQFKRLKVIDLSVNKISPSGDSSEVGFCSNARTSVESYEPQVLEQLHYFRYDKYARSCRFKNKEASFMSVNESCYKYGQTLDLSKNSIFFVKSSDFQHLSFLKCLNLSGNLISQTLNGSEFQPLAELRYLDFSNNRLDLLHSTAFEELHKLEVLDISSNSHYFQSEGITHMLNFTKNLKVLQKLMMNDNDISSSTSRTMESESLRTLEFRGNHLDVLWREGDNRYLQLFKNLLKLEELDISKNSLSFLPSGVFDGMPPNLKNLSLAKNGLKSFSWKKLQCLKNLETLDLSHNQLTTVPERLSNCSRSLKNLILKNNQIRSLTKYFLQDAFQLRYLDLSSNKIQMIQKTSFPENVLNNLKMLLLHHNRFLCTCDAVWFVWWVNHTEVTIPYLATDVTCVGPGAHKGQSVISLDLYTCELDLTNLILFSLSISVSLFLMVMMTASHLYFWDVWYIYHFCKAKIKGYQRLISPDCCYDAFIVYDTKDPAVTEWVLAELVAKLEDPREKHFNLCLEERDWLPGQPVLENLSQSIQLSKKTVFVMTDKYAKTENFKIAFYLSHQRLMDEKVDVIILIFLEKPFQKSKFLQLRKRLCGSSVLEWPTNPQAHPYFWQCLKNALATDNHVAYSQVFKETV

In the case of `COc1ccc(-c2nc3cc(N4CCN(C5CCCC5)CC4)ccn3c2NC2CCCCC2)c(OC)c1`, the IC50 amounted to 2.11 µM at Toll-like receptor 9 and 6.7 µM against Toll-like receptor 7.

Take `COc1ccc(-c2cn3ccc(N(C)C)cc3n2)cc1`: at Toll-like receptor 9, the IC50 turned out to be 1.48 µM.

For `COc1ccc(-c2cn3ccc(N4CCNCC4)cc3n2)c(OC)c1`, the IC50 at Toll-like receptor 9 amounted to 0.046 µM.

For `COc1ccc(-c2cn3ccc(NCCCn4ccnc4)cc3n2)c(OC)c1`, the IC50 came to 0.038 µM on Toll-like receptor 9 and 0.819 µM against Toll-like receptor 7.

Turning to `COc1ccc(-c2cn3ccc(N4CCN(C5CCCC5)CC4)cc3n2)c(OCc2ccccc2)c1`, the IC50 on Toll-like receptor 9 was 0.153 µM; against Toll-like receptor 7 it was 5.56 µM.

On to `COc1ccc(-c2cn3ccc(N4CCN(C5CCCC5)CC4)cc3n2)c(O)c1`, for which the IC50 at Toll-like receptor 9 is 0.79 µM; against Toll-like receptor 7 it was 20.8 µM.

As to `COc1ccc(-c2cn3ccc(N4CCNCC4)cc3n2)c(OCCCN2CCCC2)c1`, on Toll-like receptor 9, the IC50 was found to be 0.094 µM.

As to `COc1ccc(-c2nc3cc(N4CCN(C5CCCC5)CC4)ccn3c2CN2CCCC2)c(OCc2ccccc2)c1`, the IC50 on Toll-like receptor 9 was determined as 0.24 µM.

For `COc1ccc(-c2cn3ccc(N4CCN(C(=O)C5CCCC5)CC4)cc3n2)c(O)c1`, the IC50 at Toll-like receptor 9 was determined as 2.12 µM.

`COc1ccc(-c2cn3ccc(N4CCNCC4)cc3n2)c(OCCCN2CCOCC2)c1`: the IC50 on Toll-like receptor 9 is 0.035 µM; against Toll-like receptor 7, 1.35 µM.

`COc1ccc(-c2cn3ccc(NCCCN4CCOCC4)cc3n2)cc1`: the IC50 at Toll-like receptor 9 came to 0.067 µM; against Toll-like receptor 7, 1.06 µM.

On to `COc1ccc(-c2cn3ccc(N4CCNCC4)cc3n2)c(OCc2ccccc2)c1`, for which the figures for the IC50 on Toll-like receptor 9 and at Toll-like receptor 7 were 0.055 µM and 1.13 µM, respectively.

Turning to `COc1ccc(-c2cn3ccc(N4CCN(C5CCCC5)CC4)cc3n2)cc1`, the IC50 is 0.071 µM at Toll-like receptor 9 and 3.33 µM on Toll-like receptor 7.

On to `COc1ccc(-c2cn3ccc(N4CCN(C(=O)c5ccc(F)cc5)CC4)cc3n2)c(OCc2ccccc2)c1`, for which the IC50 at Toll-like receptor 9 came to 2.19 µM; against Toll-like receptor 7, 11 µM.

For the compound `COc1ccc(-c2nc3cc(N4CCN(C(C)C)CC4)ccn3c2CN2CCOCC2)c(OC)c1`, the IC50 amounted to 0.04 µM at Toll-like receptor 9 and 2.49 µM against Toll-like receptor 7.

`COc1ccc(-c2nc3cc(N4CCN(C5CCCC5)CC4)ccn3c2CN2CCCC2)c(O)c1`: the IC50 on Toll-like receptor 9 was found to be 0.245 µM; at Toll-like receptor 7, 24.9 µM.

As to `COc1ccc(-c2cn3ccc(NCCCN4CCOCC4)cc3n2)c(OC)c1`, the IC50 at Toll-like receptor 9 was 0.069 µM.

Take `COc1ccc(-c2cn3ccc(N4CCN(C(=O)C5CCCC5)CC4)cc3n2)c(OC)c1`: the IC50 was determined as 2.91 µM on Toll-like receptor 9 and 8.7 µM at Toll-like receptor 7.

With `COc1ccc(-c2cn3ccccc3n2)c(OC)c1`, on Toll-like receptor 9, the IC50 stood at 10.4 µM.

Consider `COc1ccc(-c2cn3ccc(NCCN4CCOCC4)cc3n2)c(OC)c1`, for which the IC50 on Toll-like receptor 9 was 0.049 µM; against Toll-like receptor 7, 3.39 µM.

For `COc1ccc(-c2cn3ccc(N)cc3n2)c(OC)c1`, on Toll-like receptor 9, the IC50 was 1.57 µM.

Consider `COc1ccc(-c2nc3cc(N4CCN(C5CCCC5)CC4)ccn3c2CN2CCOCC2)c(OC)c1`, for which the results for the IC50 at Toll-like receptor 9 and on Toll-like receptor 7 were 0.142 µM and 2.12 µM, respectively.

For the compound `COc1ccc(-c2nc3cc(N4CCN(C5CCCC5)CC4)ccn3c2NCc2ccccc2)c(OC)c1`, the IC50 at Toll-like receptor 9 is 0.526 µM; on Toll-like receptor 7 it was 4.81 µM.

Regarding `COc1ccc(-c2cn3ccc(N)cc3n2)cc1`, at Toll-like receptor 9, the IC50 amounted to 2.92 µM.

Take `CN(C)c1ccn2cc(-c3ccccc3)nc2c1`: the IC50 on Toll-like receptor 9 was 2.19 µM.

Turning to `COc1ccc(-c2cn3ccc(N4CCN(C(=O)OC(C)(C)C)CC4)cc3n2)c(OCCCN2CCCC2)c1`, on Toll-like receptor 9, the IC50 came to 0.157 µM.

As to `COc1ccc(-c2nc3cc(N4CCN(C5CCCC5)CC4)ccn3c2CN2CCCC2)c(OC)c1`, the IC50 on Toll-like receptor 9 came to 0.039 µM.

In the case of `COc1ccc(-c2nc3ccccn3c2N)c(OC)c1`, the IC50 on Toll-like receptor 7 is more than 30 µM.

As for `COc1ccc(-c2cn3ccc(N4CCN(C(=O)C5CCCC5)CC4)cc3n2)c(OCc2ccccc2)c1`, the IC50 on Toll-like receptor 9 came to 5.13 µM.

Turning to `COc1ccc(-c2cn3ccc(N4CCN(C5CCCC5)CC4)cc3n2)c(OCCCN2CCCC2)c1`, on Toll-like receptor 9, the IC50 was found to be 0.017 µM.

In the case of `COc1ccc(-c2nc3cc(N4CCN(C(C)C)CC4)ccn3c2CN2CCCC2)c(OC)c1`, on Toll-like receptor 9, the IC50 turned out to be 0.015 µM.

Source of the values: ChEMBL document CHEMBL5126608, “Development, Optimization, and In Vivo Validation of New Imidazopyridine Chemotypes as Dual TLR7/TLR9 Antagonists through Activity-Directed Sequential Incorporation of Relevant Structural Subunits” (J Med Chem, 2022).
